# Test results taken from US11391726B2, “MoT cells as a therapeutic screening tool for regulatory t-cell activity” (ARIZONA BOARD OF REGENTS ON BEHALF OF ARIZONA STATE …, priority 2018, dated 2022).
# “Also recorded” adds a separate entry of the source.
# Columns and labels:
# MoT cells = assay: CFSE suppression assay: Mabs pre-incubated with MoT cells, then co-cultured with CD3/28-stimulated CD4+ PBMC; type: cell-based, human; conditions: Mab pre-incubated with MoT cells 30 minutes, CD4+ PBMC:MoT ratio 1:1/2, CFSE flow cytometry (FIGS. 5D, 5F, 5H)
# Procedure: (§1) Suppression assays. After IRB approval at Arizona State University (protocol #0601000548), peripheral blood was collected from healthy donors. After Ficoll-Paque Plus gradient separation of the buffy coat, CD4+ cells were purified using EasySep Human CD4^+ T Cell Isolation Kit (Catalog #17952 from Stemcell Technologies). Cells were allowed to rest overnight in cIMDM at 37° C. prior to labeling with CFSE (Carboxyfluorescein succinimidyl ester, from Cayman Chemica cat #10009853) dye to track cell divisions. The following day, CD4^+ T cells were counted, stained with CFSE, washed in PBS and then plated in IMDM with 10% FBS at 3×10^5 cells per well in a 48-well plate coated with OKT3 antibody at 5.0 ug/mL for 2 hours at 37° C. then washed twice in PBS before adding soluble co-stimulatory anti-CD28 (eBioscience clone CD28.6) at 5.0 ug/mL final concentration.
# In some studies MoT and Jurkat cells were labeled with Cell Trace FarRed dye (Thermofisher) to gate MoT and Jurkat cells away from CD4^+ PBMC in flow cytometry analysis. Two-fold serial dilutions of MoT and Jurkat cells were added to CD4^+ PBMC, starting at 1.5×10^5 MoT and Jurkat cells (1:1/2 ratio CD4^+ T cells:tumor cells). Final volume per well was 1 mL. Cells were incubated for 5 days. […]
# CD4+ PBMC = assay: CFSE proliferation assay: Mabs co-incubated with CD3/28-stimulated CD4+ PBMC without MoT cells; type: cell-based, human; conditions: no MoT cells (FIGS. 5C, 5E, 5G)
# Procedure: as §1
# (FIG. 5A) Unstimulated PBMC. (FIG. 5B) CD3/28-stimulated CD4^+ PBMC cell division without MoT cells. (FIG. 5C) Anti-GITR, (FIG. 5E) Anti-CCR4 mogamulizumab, and (FIG. 5G) anti-PDL-1 (atezolizumab) co-incubated with PBMCs. (FIG. 5D) Anti-GITR, (FIG. 5F) anti-CCR4 (mogamulizumab), and (FIG. 5H) anti-PDL-1 (atezolizumab) co-incubated with PBMCs and MoT cells (1:½ ratio).
substance,measurement,setting,value
atezolizumab,reversal of MoT cell-mediated suppression of CD4+ PBMC proliferation,MoT cells,None of the checkpoint inhibitor Mabs including anti-GITR reversed MoT cell-mediated suppression; also recorded: did not reverse suppression
same,reversal of MoT cell-mediated suppression of CD4+ PBMC proliferation,MoT cells; listed as anti-PD-L1,did not attenuate MoT Treg suppressive activity
same,suppression or inhibition of CD4+ PBMC proliferation by the Mab alone,CD4+ PBMC,do not suppress or inhibit
